# Results reported in patent US20230048678A1, “ICAN DERIVATIVES FOR ANTIFUNGAL USE” (DEBRECENI EGYETEM, priority 2019, published 2023).
# “And” between values parts separate entries of the source, which are not always exact repeats. Identical values can stand only once. “Also recorded” adds a separate entry of the source.
# Legend:
# [1] = tested on: human cell cultures; assay: MTT bio assay cytotoxicity; type: cell-based; details: MTT bio assay technique
# [2] = tested on: C. albicans SC5314; assay: CLSI broth microdilution susceptibility (Table 1); type: cell-based; details: 48 h, 35° C.
# Experimental: (§1) ICAN has 3 key moieties, namely the amino, naphthalene and isonitrile. To find out which ones of them are essential for the antifungal behavior and to design more efficient derivatives, comparative studies were carried out, where one of the moieties was exchanged or eliminated. All ICAN derivatives were tested against C. albicans SC5314, C. krusei ATCC 6258 and C. parapsilosis ATCC 22019. The antifungal agents were dissolved in 100% DMSO and diluted further in RPMI-1640 (with L-glutamine but without bicarbonate) and buffered to pH 7.0 with 0.165 M morpholinopropanesulfonic acid (MOPS). MICs were read visually after 48-h incubation at 35° C. using the partial (50%) inhibition (for ICAN derivatives) (PI) and total inhibition (for AMB and ICAN derivatives) (TI) criteria. MICs were determined at least twice.
# (§2) The tested C. albicans, C. tropicalis, C. parapsilosis, C. glabrata and C. krusei ATCC strains and clinical isolates are listed in Table 2. MICs were determined according to the CLSI M27-A3 [22]. Antifungal agents were dissolved in 100% DMSO and diluted further in RPMI-1640 (with L-glutamine but without bicarbonate) (Sigma, Budapest, Hungary), and buffered to pH 7.0 with 0.165 M morpholinopropanesulfonic acid (MOPS; Sigma, Budapest, Hungary). The final concentration ranges used for AMB and ICAN derivatives were 0.125 to 4 μg/ml and 0.04 to 20 μg/ml, respectively. Yeast cell suspensions were prepared in RPMI 1640 medium and were adjusted to give a final inoculum concentration of 0.5×10^3 to 2.5×10^3 cells/ml. MICs were read visually after 48-h incubation at 35° C. using the partial (50%) inhibition (for ICAN derivatives) (PI) and total inhibition (for AMB and ICAN derivatives) (TI) criteria. MICs were determined at least twice. For amphotericin B isolates with MIC values of ≤2 mg/L were considered wild-types. [Pfaller M A, 2012]
# [3] = tested on: C. parapsilosis ATCC 22019; assay: CLSI broth microdilution susceptibility (Table 1); type: cell-based; details: 48 h, 35° C.
# Experimental: as §1, §2
# [4] = tested on: C. krusei ATCC 6258; assay: CLSI broth microdilution susceptibility (Table 1); type: cell-based; details: 48 h, 35° C.
# Experimental: as §1, §2
# [5] = tested on: human cell cultures; details: from [Nagy M 2018, Nagy Z L; cited from earlier work
# [6] = tested on: C. albicans isolate 3666; assay: Murine model, kidney fungal burden; type: in vivo, BALB/c mice; details: immunosuppressed mice, 10^4 cfu/mouse iv
# Experimental: During an independent in vivo experiment mice were infected intravenously with C. albicans isolate 3666. The infected mice were euthanized 2 or 6 days after infection (n=5 and 6 mice/time point, respectively), as disclosed herein, to determine the fungal burdens in the kidneys. Kidney burden was analyzed using a Kruskal-Wallis test with Dunn's posttest for multiple comparisons [Foldi R 2012, Kovacs R 2014]. Results of fungal burden experiments are shown on FIGS. 3b and c. […] It is well seen in […], that on day 6. the fungal burden increased by an order of magnitude (from −10^5 to −10^6) in the case of the untreated mice, while in the case of DIMICAN it remained the same as it was on day 2. The same is valid for AMB.
# We used 10-12 week-old female BALB/c mice for all experiments. Mice were immunosuppressed using 150 mg/kg intraperitoneal (ip) cyclophosphamide dose (4 days prior to infection) and 100 mg/kg ip cyclophosphamide dose (1 day prior to infection; 2 and 5 days after infection) [Spellberg B, 2005]. All mice received ceftazidime (5 mg/day subcutaneously) from days 0 to 6 after infection. Mice were given food and water ad libitum and were monitored daily. The animals were maintained in accordance with the Guidelines for the Care and Use of Laboratory Animals, and the experiments were approved by the Animal Care Committee of the University of Debrecen, Debrecen, Hungary (permission no. 12/2014).
# Mice were infected via the lateral tail vein with C. albicans 3666 bloodstream isolate. In the lethality (10 mice/group) and fungal tissue burden experiments (6 mice/group) the infectious doses were 3×10^4 and 10^4 cfu/mouse, respectively. These doses led to 100% and 0% mortality, respectively by day 6 after infection among untreated mice. Inoculum density was confirmed by plating serial dilutions onto Sabouraud dextrose agar (SDA) plates.
# AMB (Fungizone, commercial preparation) and DIMICAN treatment in a 0.5-ml bolus was started 1 h after infection. The doses were 1 mg AMB and 5 mg DIMICAN (in olive oil/water (o/w) emulsion) per kg body weight. All antifungals were administered intraperitoneally once daily for 5 consecutive days.
# Infected mice were euthanized 2 or 6 days after infection (n=6 mice/time point) to determine the fungal burden in the kidney. […] Aliquots of 0.1 ml of the undiluted and diluted homogenates were plated onto SDA, and the colony count was determined after 48 h. Colony-forming units (CFUs) were determined after 48 h of incubation at 37° C. and results were expressed as cfus/g tissue [Spellberg B, 2005]. […]
# Survival effects were analyzed by the Kaplan—Meier log-rank test. Kidney burden was analysed using a Kruskal—Wallis test with Dunn's posttest for multiple comparisons [Foldi R 2012, Kovacs R 2014].
# [7] = tested on: C. albicans SC5314, C. krusei ATCC 6258 and C. parapsilosis ATCC 22019; assay: CLSI broth microdilution, MIC summarised over the three Candida test strains; type: cell-based; details: value or range over the three Candida strains of Table 1, total inhibition
# Experimental: as §1, §2
smiles,measurement,setting,value
"[C-]#[N+]c1cccc2c(N(C)C)cccc12 [DIMICAN, N,N-dimethyl-1-amino-5-isocyanonaphthalene]",LD50,[1],13 µg/mL
same,MICPI,[2]; partial (50%) inhibition,≤0.04 µg/mL
same,MICTI,[2]; total inhibition,0.6 µg/mL
same,MICPI,[3]; partial (50%) inhibition,0.15 µg/mL
same,MICTI,[3]; total inhibition,0.6 µg/mL
same,MICPI,[4]; partial (50%) inhibition,0.15 µg/mL
same,MICTI,[4]; total inhibition,0.3 µg/mL
same,cytotoxic effect,[5],no cytotoxic effect
same,"effect on kidney fungal burden, six days after infection","[6]; 5 mg/kg DIMICAN or 1 mg/kg AMB ip once daily for 5 days, p<0.05 (AMB), p<0.001 (DIMICAN) vs control",efficient; also recorded: significantly lower fungal burden
same,"effect on kidney fungal burden, two days after infection","[6]; 5 mg/kg DIMICAN or 1 mg/kg AMB ip once daily, P>0.05 vs control",no effect on fungal load
same,MICTI,[7],0.6 µg/mL and 0.3 to 0.6 µg/mL
